Experimental data published in patent US6358885B1, “Substituted phenylheterocyclic herbicides” (Mississippi State University, priority 1992, dated 2002).

Assays:
Test in all cases: Test G preemergence/postemergence greenhouse plant response rating 0 to 100
yellow nutsedge = format: in vivo, Cyperus esculentus; conditions: Rate 125 g/ha, 0 to 100 scale
Text: (§1) Seeds, rhizomes, or plant parts of alfalfa (Medicago ativa), annual bluegrass (Poa annua), bermudagrass (Cynodon dactylon), broadleaf signalgrass (Brachiaria plantaginea), common purslane (Portulaca oleracea), common ragweed (Ambrosia elatior), […] (Paspalum dilatatum), goosegrass (Eleusine indica), guineagrass (Panicum maximum), […] exaltata), johnsongrass (Sorghum halepense), large crabgrass (Digitaria sanguinalis), peanut (Arachis hypoagaea), pitted morningglory (Ipomoea lacunosa), purple nutsedge (Cyperus rotundus), sandbur (Cenchrus echinatus), smooth crabgrass (Digitaria ischaemum) and yellow nutsedge (Cyperus esculentus) were planted into greenhouse pots containing greenhouse planting medium. Each pot contained only one plant species. The test compound was dissolved in a non-phytotoxic solvent and applied preemergence and/or postemergence to the plants. Preemergence applications were made within one day of planting the seeds or plant parts. Postemergence applications were applied when the plants were in the two to four leaf stage (three to twenty cm). Test chemicals were dissolved in a non-phytotoxic solvent and applied preemergence and postemergence to the plants. Untreated control plants and treated plants were placed in the greenhouse and visually evaluated for injury at 13 to 21 days after herbicide application. […] A dash (-) response indicates no test result.

pitted morningglory = format: in vivo, Ipomoea lacunosa; conditions: 0 to 100 scale
Text: as §1

bermudagrass = format: in vivo, Cynodon dactylon; conditions: 0 to 100 scale
Text: as §1

broadleaf signalgrass = format: in vivo, Brachiaria plantaginea; conditions: 0 to 100 scale
Text: as §1

peanut = format: in vivo, Arachis hypoagaea; conditions: 0 to 100 scale
Text: as §1

guineagrass = format: in vivo, Panicum maximum; conditions: 0 to 100 scale
Text: as §1

common purslane = format: in vivo, Portulaca oleracea; conditions: 0 to 100 scale
Text: as §1

smooth crabgrass = format: in vivo, Digitaria ischaemum; conditions: 0 to 100 scale
Text: as §1

purple nutsedge = format: in vivo, Cyperus rotundus; conditions: Rate 125 g/ha, 0 to 100 scale
Text: as §1

annual bluegrass = format: in vivo, Poa annua; conditions: 0 to 100 scale
Text: as §1

alfalfa = format: in vivo, Medicago ativa; conditions: 0 to 100 scale
Text: as §1

large crabgrass = format: in vivo, Digitaria sanguinalis; conditions: 0 to 100 scale
Text: as §1

johnsongrass = format: in vivo, Sorghum halepense; conditions: 0 to 100 scale
Text: as §1

common ragweed = format: in vivo, Ambrosia elatior; conditions: 0 to 100 scale
Text: as §1

dallisgrass = format: in vivo, Paspalum dilatatum; conditions: 0 to 100 scale
Text: as §1

goosegrass = format: in vivo, Eleusine indica; conditions: 0 to 100 scale
Text: as §1

itchgrass = format: in vivo, Rottboellia exaltata; conditions: 0 to 100 scale
Text: as §1

Fc1cc(Cl)c(OC2CCCC2)cc1-c1nn2c(c1Cl)CCCC2 [Compound 24]
Plant response rating, Yellow Nutsedge (yellow nutsedge; POSTEMERGENCE): 0 | Plant response rating, Yellow Nutsedge (yellow nutsedge; PREEMERGENCE): 0 | Plant response rating, Pit Morninglory (pitted morningglory; POSTEMERGENCE, Rate 125 g/ha): 0 | Plant response rating, Pit Morninglory (pitted morningglory; POSTEMERGENCE, Rate 250 g/ha): 30 | Plant response rating, Pit Morninglory (pitted morningglory; PREEMERGENCE, Rate 125 g/ha): 0 | Plant response rating, Pit Morninglory (pitted morningglory; PREEMERGENCE, Rate 250 g/ha): 50 | Plant response rating, Bermudagrass (bermudagrass; POSTEMERGENCE, Rate 125 g/ha): 0 | Plant response rating, Bermudagrass (bermudagrass; POSTEMERGENCE, Rate 250 g/ha): 0 | Plant response rating, Bermudagrass (bermudagrass; PREEMERGENCE, Rate 125 g/ha): 30 | Plant response rating, Bermudagrass (bermudagrass; PREEMERGENCE, Rate 250 g/ha): 0 | Plant response rating, Brdlf Sgnlgrass (broadleaf signalgrass; POSTEMERGENCE, Rate 125 g/ha): 0 | Plant response rating, Brdlf Sgnlgrass (broadleaf signalgrass; POSTEMERGENCE, Rate 250 g/ha): 0 | Plant response rating, Brdlf Sgnlgrass (broadleaf signalgrass; PREEMERGENCE, Rate 125 g/ha): 100 | Plant response rating, Brdlf Sgnlgrass (broadleaf signalgrass; PREEMERGENCE, Rate 250 g/ha): 0 | Plant response rating, Peanuts (peanut; POSTEMERGENCE, Rate 125 g/ha): 0 | Plant response rating, Peanuts (peanut; POSTEMERGENCE, Rate 250 g/ha): 0 | Plant response rating, Peanuts (peanut; PREEMERGENCE, Rate 125 g/ha): 0 | Plant response rating, Peanuts (peanut; PREEMERGENCE, Rate 250 g/ha): 0 | Plant response rating, Guineagrass (guineagrass; POSTEMERGENCE, Rate 125 g/ha): 0 | Plant response rating, Guineagrass (guineagrass; POSTEMERGENCE, Rate 250 g/ha): 0 | Plant response rating, Guineagrass (guineagrass; PREEMERGENCE, Rate 125 g/ha): 0 | Plant response rating, Guineagrass (guineagrass; PREEMERGENCE, Rate 250 g/ha): 0 | Plant response rating, Cmn Purslane (common purslane; POSTEMERGENCE, Rate 125 g/ha): 80 | Plant response rating, Cmn Purslane (common purslane; POSTEMERGENCE, Rate 250 g/ha): 70 | Plant response rating, Cmn Purslane (common purslane; PREEMERGENCE, Rate 125 g/ha): 0 | Plant response rating, Cmn Purslane (common purslane; PREEMERGENCE, Rate 250 g/ha): 0 | Plant response rating, Smooth Crabgras (smooth crabgrass; POSTEMERGENCE, Rate 125 g/ha): 0 | Plant response rating, Smooth Crabgras (smooth crabgrass; POSTEMERGENCE, Rate 250 g/ha): 0 | Plant response rating, Smooth Crabgras (smooth crabgrass; PREEMERGENCE, Rate 125 g/ha): 0 | Plant response rating, Smooth Crabgras (smooth crabgrass; PREEMERGENCE, Rate 250 g/ha): 0 | Plant response rating, Purple Nutsedge (purple nutsedge; POSTEMERGENCE): 0 | Plant response rating, Purple Nutsedge (purple nutsedge; PREEMERGENCE): 0 | Plant response rating, Ann Bluegrass (annual bluegrass; POSTEMERGENCE, Rate 125 g/ha): 0 | Plant response rating, Ann Bluegrass (annual bluegrass; POSTEMERGENCE, Rate 250 g/ha): 0 | Plant response rating, Ann Bluegrass (annual bluegrass; PREEMERGENCE, Rate 125 g/ha): 30 | Plant response rating, Ann Bluegrass (annual bluegrass; PREEMERGENCE, Rate 250 g/ha): 0 | Plant response rating, Alfalfa Var. (alfalfa; POSTEMERGENCE, Rate 125 g/ha): 0 | Plant response rating, Alfalfa Var. (alfalfa; POSTEMERGENCE, Rate 250 g/ha): 20 | Plant response rating, Alfalfa Var. (alfalfa; PREEMERGENCE, Rate 125 g/ha): 0 | Plant response rating, Alfalfa Var. (alfalfa; PREEMERGENCE, Rate 250 g/ha): 0 | Plant response rating, Large Crabgrass (large crabgrass; POSTEMERGENCE, Rate 125 g/ha): 0 | Plant response rating, Large Crabgrass (large crabgrass; POSTEMERGENCE, Rate 250 g/ha): 0 | Plant response rating, Large Crabgrass (large crabgrass; PREEMERGENCE, Rate 125 g/ha): 80 | Plant response rating, Large Crabgrass (large crabgrass; PREEMERGENCE, Rate 250 g/ha): 90 | Plant response rating, Johnsongrass (johnsongrass; POSTEMERGENCE, Rate 125 g/ha): 0 | Plant response rating, Johnsongrass (johnsongrass; POSTEMERGENCE, Rate 250 g/ha): 0 | Plant response rating, Johnsongrass (johnsongrass; PREEMERGENCE, Rate 125 g/ha): 0 | Plant response rating, Johnsongrass (johnsongrass; PREEMERGENCE, Rate 250 g/ha): 0 | Plant response rating, Cmn Ragweed (common ragweed; POSTEMERGENCE, Rate 125 g/ha): 50 | Plant response rating, Cmn Ragweed (common ragweed; POSTEMERGENCE, Rate 250 g/ha): 0 | Plant response rating, Cmn Ragweed (common ragweed; PREEMERGENCE, Rate 125 g/ha): 40 | Plant response rating, Cmn Ragweed (common ragweed; PREEMERGENCE, Rate 250 g/ha): 0 | Plant response rating, Dallisgrass (dallisgrass; POSTEMERGENCE, Rate 125 g/ha): 0 | Plant response rating, Dallisgrass (dallisgrass; POSTEMERGENCE, Rate 250 g/ha): 0 | Plant response rating, Dallisgrass (dallisgrass; PREEMERGENCE, Rate 125 g/ha): 20 | Plant response rating, Dallisgrass (dallisgrass; PREEMERGENCE, Rate 250 g/ha): 30 | Plant response rating, Goosegrass (goosegrass; POSTEMERGENCE, Rate 125 g/ha): 0 | Plant response rating, Goosegrass (goosegrass; POSTEMERGENCE, Rate 250 g/ha): 0 | Plant response rating, Goosegrass (goosegrass; PREEMERGENCE, Rate 125 g/ha): 90 | Plant response rating, Goosegrass (goosegrass; PREEMERGENCE, Rate 250 g/ha): 40 | Plant response rating, Itchgrass (itchgrass; POSTEMERGENCE, Rate 125 g/ha): 0 | Plant response rating, Itchgrass (itchgrass; POSTEMERGENCE, Rate 250 g/ha): 0 | Plant response rating, Itchgrass (itchgrass; PREEMERGENCE, Rate 125 g/ha): 100 | Plant response rating, Itchgrass (itchgrass; PREEMERGENCE, Rate 250 g/ha): 20
